We go through two molecules from PMC8359396, “Pharmacological validation of TDO as a target for Parkinson’s disease” (The Febs Journal, 2021).

As a reminder, the inhibition is the relative decrease from the control value, in per cent. As a reminder, the IC50 is the point on the concentration scale where inhibition reaches its midpoint.

Assay [1] deals with human IDO1‐overexpressing HEK‐293 cells (HEK‐hIDO1) (Homo sapiens, UniProt P14902). As to the kind of experiment: Cell-based IDO1 assay, HEK‐hIDO1 cells (NFK Green). How it is done:
Inhibition of Trp‐to‐NFK conversion in HEK‐hTDO, HEK‐hIDO1, and SW48 cells was measured with NFK Green, essentially as described previously for cancer cell lines. Cell density, incubation time, and Trp concentrations were optimized. For the TDO assay with HEK‐hTDO and SW48 cells, 200 µM Trp was added to the culture medium. No additional Trp was added for the IDO1 assay with HEK‐hIDO1 cells. The incubation time with compound was 42 h for the assays with HEK‐hTDO and HEK‐hIDO1 cells, and 18 h for the assay with SW48 cells.

A further assay has as its target T1, GL‐261‐mTDO (Mus musculus, UniProt P48776).
T1 construct: stably overexpressing the full‐length mouse TDO2 cDNA (GL‐261‐mTDO); expressed in transfected cells; host or cells: GL-261
As to the kind of experiment: Cell-based TDO assay, GL‐261‐mTDO cells (pDMAB).

The test system of a further assay is TDO activity in vivo. As to the kind of experiment: Trp and Kyn levels in plasma and brain of the PK studies (LC‐MS/MS). Set-up: species or system male C57BL/6NCrl mice. To be noted: mice.
For assay [2], the system named is constitutively TDO‐expressing human glioblastoma A172 cell line. Set-up: method as in PMID 31806638. The following applies: cited from earlier work.
Assay [3] has as its system hTDO‐overexpressing HEK‐293 cells. Set-up: method as in PMID 22308364. The following applies: originally reported; cited from earlier work.
The target of a further assay is SW48 (hTDO) (Homo sapiens, UniProt P48775). Briefly: cell-based.
The next assay deals with recombinant hIDO1 (Homo sapiens, UniProt P14902). Briefly: IDO1 biochemical assay (NFK Green). To be noted: for inhibition at 0.6 µM: read-out: inhibition hIDO1.
A further assay deals with CYP1A2 (Homo sapiens, UniProt P05177). Briefly: CYP enzyme panel. The assay is classed as biochemical. The source says: (§1) Since TDO contains a heme center, similar to cytochrome P450 (CYP) enzymes, we evaluated the selectivity of NTRC 3531‐0 on a panel of seven CYP enzymes, that is, CYP1A2, CYP2B6, CYP2C8, CYP2C9, CYP2C19, CYP2D6, and CYP3A4.
The next assay addresses CYP2B6 (Homo sapiens, UniProt P20813). As to the kind of experiment: CYP enzyme panel. The assay is classed as biochemical.
Description: as §1

The target in a further assay is CYP2C19 (Homo sapiens, UniProt P33261). Briefly: CYP enzyme panel. The assay is classed as biochemical.
Description: as §1

Another assay has as its target CYP2C8 (Homo sapiens, UniProt P10632). As to the kind of experiment: CYP enzyme panel. The assay is classed as biochemical.
Description: as §1

Another assay has as its target CYP2C9 (Homo sapiens, UniProt P11712). Briefly: CYP enzyme panel. The class given is biochemical.
Description: as §1

The target of a further assay is CYP2D6 (Homo sapiens, UniProt P10635). As to the kind of experiment: CYP enzyme panel. The assay is classed as biochemical.
Description: as §1

A further assay addresses CYP3A4 (Homo sapiens, UniProt P08684). As to the kind of experiment: CYP enzyme panel. The class given is biochemical.
Description: as §1

Assay [4] deals with T2, recombinant human TDO (hTDO) (Homo sapiens, UniProt P48775).
Assay [5] has as its target T2, recombinant human TDO (hTDO). As to the kind of experiment: biochemical.

Sequence of recombinant hIDO1 (P14902 whole entry): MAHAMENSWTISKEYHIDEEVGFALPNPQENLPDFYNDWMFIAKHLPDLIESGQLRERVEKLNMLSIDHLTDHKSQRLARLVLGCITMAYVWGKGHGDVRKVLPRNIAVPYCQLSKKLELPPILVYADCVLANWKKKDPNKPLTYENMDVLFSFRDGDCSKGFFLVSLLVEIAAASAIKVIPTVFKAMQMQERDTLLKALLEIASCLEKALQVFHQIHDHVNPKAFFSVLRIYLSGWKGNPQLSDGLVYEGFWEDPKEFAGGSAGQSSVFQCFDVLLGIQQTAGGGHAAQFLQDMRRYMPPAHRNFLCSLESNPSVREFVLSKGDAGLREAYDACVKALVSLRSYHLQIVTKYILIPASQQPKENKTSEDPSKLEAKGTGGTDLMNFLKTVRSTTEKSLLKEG
T1 sequence (P48776 whole entry): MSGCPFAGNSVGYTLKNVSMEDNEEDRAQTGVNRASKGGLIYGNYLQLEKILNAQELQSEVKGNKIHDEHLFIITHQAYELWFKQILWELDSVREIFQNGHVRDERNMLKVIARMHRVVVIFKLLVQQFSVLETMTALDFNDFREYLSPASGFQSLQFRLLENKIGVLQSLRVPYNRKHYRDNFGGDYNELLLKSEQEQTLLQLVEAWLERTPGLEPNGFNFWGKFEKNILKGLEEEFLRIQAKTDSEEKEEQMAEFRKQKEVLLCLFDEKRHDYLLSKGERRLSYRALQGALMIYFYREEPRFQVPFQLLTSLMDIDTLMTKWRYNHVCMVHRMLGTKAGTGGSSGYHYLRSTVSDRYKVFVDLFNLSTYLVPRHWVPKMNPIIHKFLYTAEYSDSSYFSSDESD
Sequence of human IDO1‐overexpressing HEK‐293 cells (HEK‐hIDO1) (P14902 whole entry): as the sequence (P14902 whole entry) above
Sequence of SW48 (hTDO) (P48775 whole entry): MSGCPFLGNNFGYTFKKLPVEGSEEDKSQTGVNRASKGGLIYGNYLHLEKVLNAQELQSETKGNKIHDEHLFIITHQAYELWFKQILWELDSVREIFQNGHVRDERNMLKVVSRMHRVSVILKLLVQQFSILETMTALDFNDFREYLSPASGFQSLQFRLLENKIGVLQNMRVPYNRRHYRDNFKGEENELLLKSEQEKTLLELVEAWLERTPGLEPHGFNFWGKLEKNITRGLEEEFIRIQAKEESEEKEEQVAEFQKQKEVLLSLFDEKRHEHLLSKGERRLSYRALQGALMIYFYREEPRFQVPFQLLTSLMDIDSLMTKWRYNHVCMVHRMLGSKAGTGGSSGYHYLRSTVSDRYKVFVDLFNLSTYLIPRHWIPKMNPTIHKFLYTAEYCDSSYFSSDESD
T2 sequence (P48775 whole entry): as above
Sequence of CYP2B6 (P20813 whole entry): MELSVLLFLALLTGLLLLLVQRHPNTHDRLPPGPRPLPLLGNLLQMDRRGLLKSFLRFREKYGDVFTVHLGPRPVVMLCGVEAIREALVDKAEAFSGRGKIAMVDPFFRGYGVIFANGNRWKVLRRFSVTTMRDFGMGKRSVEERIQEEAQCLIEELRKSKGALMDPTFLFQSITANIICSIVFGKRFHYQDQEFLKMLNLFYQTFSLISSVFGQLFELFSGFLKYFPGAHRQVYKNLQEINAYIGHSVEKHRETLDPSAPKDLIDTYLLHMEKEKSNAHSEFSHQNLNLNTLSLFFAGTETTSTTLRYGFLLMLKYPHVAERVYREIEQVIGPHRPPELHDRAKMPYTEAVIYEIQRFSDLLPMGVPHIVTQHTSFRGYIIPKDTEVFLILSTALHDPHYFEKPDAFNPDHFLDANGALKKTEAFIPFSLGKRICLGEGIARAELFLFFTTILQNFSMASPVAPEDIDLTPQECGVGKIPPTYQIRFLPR
Sequence of CYP1A2 (P05177 whole entry): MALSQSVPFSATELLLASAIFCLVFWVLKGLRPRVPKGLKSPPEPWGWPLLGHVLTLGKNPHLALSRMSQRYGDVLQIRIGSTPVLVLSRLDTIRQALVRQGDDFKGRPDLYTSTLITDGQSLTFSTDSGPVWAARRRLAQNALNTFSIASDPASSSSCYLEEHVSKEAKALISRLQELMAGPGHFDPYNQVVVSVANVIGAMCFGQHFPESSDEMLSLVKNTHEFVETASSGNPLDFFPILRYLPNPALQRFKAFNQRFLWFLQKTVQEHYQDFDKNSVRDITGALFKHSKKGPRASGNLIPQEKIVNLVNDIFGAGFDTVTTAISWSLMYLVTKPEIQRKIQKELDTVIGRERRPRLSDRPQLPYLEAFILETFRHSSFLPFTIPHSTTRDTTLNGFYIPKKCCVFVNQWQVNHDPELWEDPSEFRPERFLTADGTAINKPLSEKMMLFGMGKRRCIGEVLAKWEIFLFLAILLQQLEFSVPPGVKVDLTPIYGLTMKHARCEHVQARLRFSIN
Sequence of CYP2C9 (P11712 whole entry): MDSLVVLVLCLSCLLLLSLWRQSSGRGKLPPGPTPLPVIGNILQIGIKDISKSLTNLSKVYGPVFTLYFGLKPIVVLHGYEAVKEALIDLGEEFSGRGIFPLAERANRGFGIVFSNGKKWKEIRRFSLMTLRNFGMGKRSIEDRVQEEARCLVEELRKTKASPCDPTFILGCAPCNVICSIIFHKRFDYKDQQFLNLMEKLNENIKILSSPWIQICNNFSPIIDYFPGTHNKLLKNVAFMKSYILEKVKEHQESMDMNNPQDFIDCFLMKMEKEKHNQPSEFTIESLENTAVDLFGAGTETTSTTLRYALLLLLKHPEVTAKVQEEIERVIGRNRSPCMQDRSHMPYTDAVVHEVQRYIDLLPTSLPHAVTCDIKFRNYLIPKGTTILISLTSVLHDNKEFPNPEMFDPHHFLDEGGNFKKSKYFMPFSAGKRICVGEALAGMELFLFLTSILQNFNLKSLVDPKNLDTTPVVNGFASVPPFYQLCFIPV
Sequence of CYP2D6 (P10635 whole entry): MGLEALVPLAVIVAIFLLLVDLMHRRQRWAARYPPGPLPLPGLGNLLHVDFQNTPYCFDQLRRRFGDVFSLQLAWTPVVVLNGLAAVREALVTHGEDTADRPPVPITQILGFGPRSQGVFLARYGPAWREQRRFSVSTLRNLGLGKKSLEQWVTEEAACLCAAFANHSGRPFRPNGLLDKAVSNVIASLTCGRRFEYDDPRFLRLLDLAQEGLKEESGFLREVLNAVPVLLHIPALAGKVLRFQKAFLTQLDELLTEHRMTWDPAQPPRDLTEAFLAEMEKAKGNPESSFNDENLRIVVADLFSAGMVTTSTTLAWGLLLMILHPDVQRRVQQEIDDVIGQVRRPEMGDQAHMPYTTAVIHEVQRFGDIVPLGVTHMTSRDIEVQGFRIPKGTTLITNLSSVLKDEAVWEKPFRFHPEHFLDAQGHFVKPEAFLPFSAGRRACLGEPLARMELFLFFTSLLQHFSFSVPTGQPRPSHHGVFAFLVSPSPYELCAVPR
Sequence of CYP2C19 (P33261 whole entry): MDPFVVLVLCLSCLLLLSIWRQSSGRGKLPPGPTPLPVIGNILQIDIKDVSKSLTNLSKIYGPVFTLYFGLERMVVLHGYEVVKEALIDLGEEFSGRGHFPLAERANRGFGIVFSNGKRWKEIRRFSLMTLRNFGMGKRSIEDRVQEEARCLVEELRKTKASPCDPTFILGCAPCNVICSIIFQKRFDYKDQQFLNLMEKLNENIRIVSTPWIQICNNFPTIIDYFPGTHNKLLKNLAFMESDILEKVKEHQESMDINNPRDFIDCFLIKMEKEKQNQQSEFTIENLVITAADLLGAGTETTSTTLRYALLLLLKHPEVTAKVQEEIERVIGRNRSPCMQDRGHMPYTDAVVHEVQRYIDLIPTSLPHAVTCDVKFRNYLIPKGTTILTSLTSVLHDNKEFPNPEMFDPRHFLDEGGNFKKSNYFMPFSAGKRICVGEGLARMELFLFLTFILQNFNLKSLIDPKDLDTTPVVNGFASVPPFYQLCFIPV
Sequence of CYP2C8 (P10632 whole entry): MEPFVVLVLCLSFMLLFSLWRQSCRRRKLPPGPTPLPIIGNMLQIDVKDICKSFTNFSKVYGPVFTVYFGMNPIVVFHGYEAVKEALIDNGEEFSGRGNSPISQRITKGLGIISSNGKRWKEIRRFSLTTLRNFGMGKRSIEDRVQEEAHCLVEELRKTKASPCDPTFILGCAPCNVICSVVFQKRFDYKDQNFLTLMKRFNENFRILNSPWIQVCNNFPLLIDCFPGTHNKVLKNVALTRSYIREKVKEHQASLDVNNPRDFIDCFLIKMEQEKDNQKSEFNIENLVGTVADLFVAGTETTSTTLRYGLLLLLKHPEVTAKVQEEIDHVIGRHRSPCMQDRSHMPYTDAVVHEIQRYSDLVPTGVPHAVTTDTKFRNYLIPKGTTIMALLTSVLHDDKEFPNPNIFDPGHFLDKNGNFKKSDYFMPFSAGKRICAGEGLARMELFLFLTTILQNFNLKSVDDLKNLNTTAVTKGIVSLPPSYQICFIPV
Sequence of CYP3A4 (P08684 whole entry): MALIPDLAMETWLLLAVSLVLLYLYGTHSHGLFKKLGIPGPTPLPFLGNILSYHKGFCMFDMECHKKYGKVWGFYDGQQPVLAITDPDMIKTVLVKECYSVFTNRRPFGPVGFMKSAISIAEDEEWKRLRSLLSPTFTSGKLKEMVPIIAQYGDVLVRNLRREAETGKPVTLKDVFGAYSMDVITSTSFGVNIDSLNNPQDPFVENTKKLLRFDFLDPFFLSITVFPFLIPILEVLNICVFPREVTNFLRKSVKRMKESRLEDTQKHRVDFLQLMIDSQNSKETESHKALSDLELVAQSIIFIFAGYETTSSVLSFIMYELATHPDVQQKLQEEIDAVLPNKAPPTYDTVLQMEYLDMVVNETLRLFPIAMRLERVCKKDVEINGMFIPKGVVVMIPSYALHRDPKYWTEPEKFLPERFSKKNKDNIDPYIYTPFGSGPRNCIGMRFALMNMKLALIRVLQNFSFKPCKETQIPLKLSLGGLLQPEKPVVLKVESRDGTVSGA

Consider `Fc1ccc2c(/C=C/c3nnn[nH]3)c[nH]c2c1` [LM10, reference compound], for which the inhibition at 0.6 µM was less than 20% in assay [1] (HEK293, read-out: inhibition HEK‐hIDO1); 42% on GL‐261‐mTDO (read-out: inhibition GL‐261‐mTDO); less than 20% at recombinant hIDO1. Further, the “Trp levels in plasma and brain compared to vehicle” value with TDO activity in vivo (single p.o. 50 mg·kg^−1) is listed as “no increase”. The “Kyn levels in plasma” value with TDO activity in vivo (single p.o. 50 mg·kg^−1, 0.25 h P < 0.01, 0.5 h P < 0.05) is on record as “only the initial decrease in Kyn levels was found to be significant”. For the same molecule, the 50% inhibitory concentration (IC50) in [2] was 24 µM. Besides, the “potency in hTDO‐overexpressing HEK‐293 cells” value in assay [3] is “high‐nanomolar potent inhibitor”. In addition, the inhibition at 31.6 µM on SW48 (hTDO) (SW48, read-out: inhibition in SW48 cells) was 50%.

As for `C[C@@H](CO)NC(=O)c1ccc(-c2c[nH]c3cc(F)ccc23)cc1` [NTRC 3531‐0], the IC50 in assay [1] (cell-based assay, read-out: Potency (IC50) HEK‐hIDO1 (converted)) is 20.7 µM; against GL‐261‐mTDO, 0.214 µM; against CYP1A2, greater than 31.6 µM; against CYP2B6 it was greater than 31.6 µM; on CYP2C19, greater than 31.6 µM; at CYP2C8 it was 16.3 µM. The IC50 on CYP2C9 was greater than 31.6 µM; on CYP2D6, greater than 31.6 µM; against CYP3A4, greater than 31.6 µM; at SW48 (hTDO), 0.22 µM; in assay [5], 0.49 µM. Moreover, the “Kyn levels in plasma at early timepoints” value with TDO activity in vivo (single p.o. 100 mg·kg^−1, 0.25 and 0.5 h, no statistical significance) is on record as “slightly decreased”. Besides, the “Kyn levels in plasma, subsequent timepoints” value in the assay with TDO activity in vivo (single p.o. 100 mg·kg^−1, 1 and 2 h, P < 0.05) is recorded as “increased”. For the same molecule, the “concentration of Trp in plasma compared to vehicle” value in the assay on TDO activity in vivo (single p.o. 100 mg·kg^−1, 1 h P < 0.01, 2 h P < 0.0001, 7 h P < 0.01) is recorded as “increase”. Also, the “Kyn levels in brain” value with TDO activity in vivo (single p.o. 100 mg·kg^−1, 12 h P < 0.01, 24 h P < 0.05) is recorded as “increased”. Moreover, in the assay on TDO activity in vivo (single p.o. 100 mg·kg^−1, P < 0.0001 at 1, 12 and 24 h), the “concentration of Trp in brain compared to vehicle” value was “increase”. Also, the “selectivity for hTDO over hIDO1, biochemical assays” value in assay [4] is listed as “more than 60 times”. Further, the “activity on hIDO1 in the biochemical assay” value on recombinant hIDO1 (highest tested concentration 31.6 µM) was “inactive”. Besides, the inhibition at 0.6 µM at recombinant hIDO1 is less than 20%.
